What was measured:
scid-beige mice = experiment: Transplantation of differentiated cells under the kidney capsule, human C-peptide ELISA (Example 18); assay type: in vivo, mouse; settings: 8-weeks post-transplant; cells treated in step 1 as named (compounds with GDF-8)
Protocol: Five to six-week-old male scid-beige mice (C.B-Igh-1 b1 GbmsTac-Prkdc^scid-Lyst^bgN7) were purchased from Taconic Farms. Mice were housed in microisolator cages with free access to sterilized food and water. In preparation for surgery, mice were identified by ear tagging, their body weight was measured, and their blood glucose was determined using a hand held glucometer (LifeScan; One Touch). On the day of surgery, mice were anesthetized with a mixture of isolflurane and oxygen, and the surgical site was shaved with small animal clippers. Mice were dosed with 0.1 mg·kg Buprenex subcutaneously pre-operatively. The surgical site was prepared with successive washes of 70% isopropyl alcohol, 10% povidone-iodide, and 70% isopropyl alcohol, and a left lateral incision was made through the skin and muscle layers. […]
Following transplantation, mice were weighed once per week and blood glucose was measured twice per week. […] Human C-peptide levels were determined using the Mercodia/ALPCO Diagnotics Ultrasensitive C-peptide ELISA according to the manufacturer's instructions.
ELISA results for human C-peptide are shown in FIG. 23 for mice transplanted with cells from each of the respective treatment groups. No circulating human C-peptide was detected at four weeks post-transplant for any mice receiving cells from any of the treatment groups.

[1] = system: H1 human embryonic stem cells; experiment: Four-step differentiation with GDF-8, RT-PCR of pancreatic endoderm markers after step 4 (Example 19); assay type: cell-based; settings: 100 ng/ml GDF-8 with Wnt3a or with 2.5 μM Compound 40
Protocol: The differentiation process was started three days after the cells were seeded into 6-well plates. A four-step protocol was used for the in vitro differentiation of H1 human embryonic stem cells to cells expressing markers characteristic of the pancreatic endoderm lineage. Step 1 was conducted over three days to generate cells expressing markers characteristic of the definitive endoderm lineage. On the first day of step 1, differentiation was initiated by aspirating spent culture medium and adding an equal volume of RPMI-1640 basal medium (Invitrogen; Cat #22400) with 2% Albumin Bovine Fraction V, Fatty Acid Free (FAF BSA) (Proliant Biologicals; Cat #SKU 68700) and 8 ng/ml bFGF. In one treatment group, duplicate sets of cells were treated with 100 ng/ml GDF-8 (R&D Systems; Cat #788-G8) and 20 ng/ml Wnt3a (R&D Systems; Cat #1324-WN/CF). In a second treatment group, duplicate sets of cells were treated with 100 ng/ml GDF-8 and 2.5 μM Compound 40. On the second and third day of step 1 differentiation, cells in all treatment groups were fed with RPMI-1640 containing 2% FAF BSA, 8 ng/ml bFGF and 100 ng/ml GDF-8 but without the addition of Wnt3a or Compound 40. […]
Step 4 of the differentiation protocol was carried out over three days. […] On the following day, cells in suspension culture were collected and counted. […]

For `C=CCN1CC(=O)NCCCc2cncc(c2)-c2ncnc(n2)Nc2cccc(c2)C1` [Compound 40, 14-Prop-2-en-1-yl-3,5,7,14,17,23,27-heptaazatetracyclo[19.3.1.1˜2.6˜0.1˜8,12˜]heptacosa-1(25), 2(27), 3,5,8(26), 9,11,21,23-nonaen-16-one], the “mice with detectable C-peptide” value (scid-beige mice) was “one of three mice” and the “markers characteristic of the pancreatic endoderm lineage at the conclusion of step 4 (RT-PCR)” value [1] was “expressed equivalent levels of markers characteristic of the pancreatic endoderm lineage”.

In the case of “GDF-8: growth factor GDF-8, also known as myostatin, member of the TGF-β family”, the “markers characteristic of the pancreatic endoderm lineage at the conclusion of step 4 (RT-PCR)” value [1] was “expressed equivalent levels of markers characteristic of the pancreatic endoderm lineage”.

Source: patent US9593305B2, “Differentiation of pluripotent stem cells” (Janssen Biotech, Inc., priority 2008, dated 2017)
